Measured values from patent US20090312374A1, “DERIVATIVES OF 4,6-DISUBSTITUTED 1,2,4-TRIAZOLO- 1,3,4-THIADIAZOLE, A PROCESS AND USES THEREOF” (UNIVERSITY OF MYSORE, priority 2005, published 2009).

Key:
H2AX = experiment: Western blot of isolated histones probed with H2AX antibody; format: cell-based; settings: HeLa cells, 24 h compound treatment
Description: HeLa cells (3×10^6 cells per 90-mm dish) were seeded overnight, and histones were extracted from 24 h of compound treated cells as reported previously. In brief, cells were harvested, washed in ice-cold buffer A (150 mM KCl, 20 mM HEPES, pH 7.9, 0.1 mM EDTA, and 2.5 mM MgCl2) and lysed in buffer A containing 250 mM sucrose and 1% (v/v) Triton X-100. Nuclei were recovered by centrifugation and washed, and proteins were extracted for 1 h using 0.25 M HCl. The proteins were precipitated with 25% (w/v) trichloroacetic acid and sequentially washed with ice-cold acidified acetone (20 μl of 12 N HCl in 100 ml of acetone) and acetone, air-dried, and dissolved in the sample buffer (5.8 M urea, 0.9 M glacial acetic acid, 16% glycerol, and 4.8% 2-mercaptoethanol). The histones (equal amounts in all lanes) were resolved on SDS PAGE gel.
The western blot analysis was done using the isolated histones and probed with H2AX antibody and the results say that 2 of the compounds (NC-2 and NC-5) get hyperphosphorylated.

[1] = tested on: cervical cancer cell line; experiment: Immunofluorescence (Hoechst 33258) apoptosis, TN and NC series, cervical cancer; format: cell-based; settings: versus breast cancer and normal cells; FIG. 1
Excerpt: (§1) Subsequently, the cells were washed with PBS.

Breast cancer = experiment: Immunofluorescence (Hoechst 33258) apoptosis, TN and NC series, breast cancer; format: cell-based; settings: FIG. 1
Excerpt: as §1

[2] = tested on: advanced squamous-cell cervical cancer; settings: 125 mg/m2 weekly, cited from earlier work
[3] = twenty-one patients, advanced squamous-cell cervical cancer

CCc1nnc2sc(-c3cccc(Cl)c3Cl)nn12 [NC-2, 6-(2,3-dichlorophenyl)-3-ethyl-[1,2,4]triazolo[3,4-b][1,3,4]thiadiazole]
H2AX phosphorylation (western blot of isolated histones) (H2AX): hyperphosphorylated | selected as specific to cervical cancer cell line i.e. squamous cancer cell lines [1]: selected

CCc1nnc2sc(C3CCc4cc(F)ccc4O3)nn12 (stereo not drawn) [TN-2, 6-(6-fluorochroman-2-yl)-3-ethyl-[1,2,4]triazolo[3,4-b][1,3,4]thiadiazole]
extent of apoptosis (Breast cancer): little apoptosis

Clc1ccc(-c2nnc3sc(-c4cccc(Cl)c4Cl)nn23)cc1 [NC-5, 6-(2,3-dichlorophenyl)-3-(4-chlorophenyl)-[1,2,4]triazolo[3,4-b][1,3,4]thiadiazole]
H2AX phosphorylation (western blot of isolated histones) (H2AX): hyperphosphorylated | selected as specific to cervical cancer cell line i.e. squamous cancer cell lines [1]: selected

Fc1ccc2c(c1)CCC(c1nn3c(-c4ccccc4)nnc3s1)O2 (stereo not drawn) [TN-3, 6-(6-fluorochroman-2-yl)-3-phenyl-[1,2,4]triazolo[3,4-b][1,3,4]thiadiazole]
selected as specific to cervical cancer cell line i.e. squamous cancer cell lines [1]: selected

Fc1ccc2c(c1)CCC(c1nn3c(-c4ccc(Cl)cc4)nnc3s1)O2 (stereo not drawn) [TN-5, 3-(4-chlorophenyl)-6-(6-fluorochroman-2-yl)-[1,2,4]triazolo[3,4-b][1,3,4]thiadiazole]
extent of apoptosis (Breast cancer): little apoptosis

Cc1ccc(-c2nnc3sc(C4CCc5cc(F)ccc5O4)nn23)cc1 (stereo not drawn) [TN-4, 6-(6-fluorochroman-2-yl)-3-p-tolyl-[1,2,4]triazolo[3,4-b][1,3,4]thiadiazole]
selected as specific to cervical cancer cell line i.e. squamous cancer cell lines [1]: selected

Nc1nncs1
activity in previously treated cervical carcinoma patients [2]: minimal activity | patients with increasing disease [2, 3]: 14 | patients with partial response [2, 3]: One | patients with stable disease [2, 3]: six
